Measured values as given in EP0953357A1, “NEPHROTROPIC DRUGS” (Drug Delivery System Institute, Ltd., priority 1997, dated 1998).
“And” between values parts separate entries of the source, which are not always exact repeats. Equal entries are not always repeated. Structures can show the parent of a compound that is named as a salt. One block for each compound: values may come before it.

Columns and labels:
[1] = test system: kidney membrane fraction; test: Effect of sugars on inhibition of specific binding between ^3H-Glc-S-C8 and kidney membrane fraction (Test 8); details: ^3H-Glc-S-C8 20 pmol/ml, kidney membrane fraction 1 mg protein/ml
Procedure: In order to estimate structural requirement for recognition in the kidney, an experiment was carried out on the effect of various sugars and sugar derivatives on the inhibition of specific -binding between ^3H-Glc-S-C8 (20 pmol/ml) and the kidney membrane fraction (1 mg protein/ml).

[2] = Pharmacokinetic test of monkey (Glc-S-C8-CONH-C2-NBD) (Test 10 (2)); format: in vivo; details: monkeys, i.v. 10 nmol/kg, 5 min; n = 2, average
Procedure: In order to investigate the difference in activity of the compounds according to the present invention between animal species, the pharmacokinetic test using monkeys was carried out as follows. […] The monkeys of group A were injected with Glc-S-C8-CONH-C2-NBD, while, for comparison, the monkeys of group B were injected with 4-(2-hydroxyethyl)amino-7-nitrobenz-2-oxa-1,3-diazole (synthesis intermediate prepared in Example 44; hereinafter referred to as "HO-C2-NBD").
Five min after the administration, the monkeys were bled to death; and, immediately after that, each organ was extracted. According to the conventional method, the organs were homogenized and deprotenized. Thereafter, the samples were subjected to separation by reversed phase liquid chromatography. Glc-S-C8-CONH-C2-NBD and HO-C2-NBD were detected and quantitatively determined by fluorescence detector.

[3] = target: kidney membrane fraction; test: Inhibition of binding of ^3H-Glc-O-C8-AVP to kidney membrane fraction (Test 4); details: ^3H-Glc-O-C8-AVP 20 pmol/ml, kidney membrane fraction 1 mg/ml, on ice 10 min
Procedure: (§1) A membrane fraction was prepared by the method of Stassen F.L. et al. (J. Pharm. Exp. Thera., 223, 50-54, 1982). An experiment on binding was carried out as follows. The membrane fraction prepared above, together with the ^3H-labeled derivative, was incubated in physiological phosphate buffer on ice, followed by ultracentrifugation. The bound product obtained as the sediment by the ultracentrifugation was counted.
The inhibitory activity of segmental structures of Glc-O-C8-AVP and the like against binding ^3H-Glc-O-C8-AVP (20 pmol/ml) to the kidney membrane fraction (1 mg/ml) (incubation on ice for 10 min) was studied.

[4] = Renal selectivity (organ distribution) of thioglucoside-modified products (Test 6); format: in vivo; details: rats; for Conc. in kidney / Renal clearance: ^3H-labeled product, same manner as Test 1 (i.v. 1 nmol/kg, 5 min); for renal selectivity: comparison between AVP derivatives
Procedure: The organ clearance was determined by the following equation.

[5] = test system: kidney membrane fraction; test: Effect of glycolipid derivatives on inhibition of specific binding between ^3H-Glc-S-C8 and kidney membrane fraction (Test 9); details: specific binding of ^3H-Glc-S-C8 to kidney membrane fraction, same manner as Test 4
Procedure: as §1, with “counted. […]” for “counted.”
Commercially available or synthesized glycolipid derivatives were subjected to an binding inhibition experiment in the same manner as in Test 4.

Compound: O=C[C@H](F)[C@@H](O)[C@H](O)[C@H](O)CO [2-Fluoro-2-deoxyglucose]
Inhibition (%) ([1]; sample 20 mM): 37.8%
Inhibition (%) ([1]; sample 100 mM): 67.9%

Compound: O=[N+]([O-])c1ccc(NCCO)c2nonc12 [HO-C2-NBD, 4-(2-hydroxyethyl)amino-7-nitrobenz-2-oxa-1,3-diazole, reference compound]
concentration of administered compound: Adrenal [2]: 2.05 pmol/mol or g tissue
concentration of administered compound: Blood [2]: 7.53 pmol/mol or g tissue
concentration of administered compound: Heart [2]: 10.92 pmol/mol or g tissue
concentration of administered compound: Kidney [2]: 2.33 pmol/mol or g tissue
concentration of administered compound: Lung [2]: 17.33 pmol/mol or g tissue
concentration of administered compound: Plasma [2]: 7.51 pmol/mol or g tissue
concentration of administered compound: Spleen [2]: 2.35 pmol/mol or g tissue

Compound: arginine vasopressin [AVP, reference compound]
IC50 [3]: 150 µM
Conc. in kidney [4]: 5.3±0.7 % of dose/g
Renal clearance [4]: 0.49 ± 0.04 mL/min/g

Compound: O=CC[C@@H](O)[C@H](O)[C@H](O)CO [2-Deoxyglucose]
Inhibition (%) ([1]; sample 20 mM): 29.2%
Inhibition (%) ([1]; sample 100 mM): 58.3%

Compound: O=C[C@H](O)[C@@H](O)[C@H](O)[C@H](O)CF [6-Fluoro-6-deoxyglucose]
Inhibition (%) ([1]; sample 20 mM): 17.8%
Inhibition (%) ([1]; sample 100 mM): 32.5%

Compound: N=C(N)NCCC[C@H](NC(=O)[C@@H]1CCCN1C(=O)[C@@H]1CSSC[C@H](NC(=O)CCCCCCCCS[C@@H]2O[C@H](CO)[C@@H](O)[C@H](O)[C@H]2O)C(=O)N[C@@H](Cc2ccc(O)cc2)C(=O)N[C@@H](Cc2ccccc2)C(=O)N[C@@H](CCC(N)=O)C(=O)N[C@@H](CC(N)=O)C(=O)N1)C(=O)NCC(N)=O [Glc-S-C8-AVP]
Conc. in kidney [4]: 29.2±0.9 % of dose/g
Renal clearance [4]: 3.42 mL/min/g and 3.42 ± 0.05 mL/min/g
renal selectivity [4]: higher renal selectivity than Glc-O-C8-AVP

Compound: OC[C@H]1NC[C@H](O)[C@@H](O)[C@@H]1O [1-Deoxynojirimycin]
Inhibition (%) ([1]; sample 20 mM): 98.9%
Inhibition (%) ([1]; sample 100 mM): 99.6%

Compound: CO[C@@H]1O[C@H](CO)[C@@H](O)[C@H](O)[C@H]1O [Glc-O-CH3, Methyl β-D-glucopyranoside]
IC50 [3]: > 2000 µM

Compound: O=C[C@H](O)[C@@H](O)[C@H](F)[C@H](O)CO [4-Fluoro-4-deoxyglucose]
Inhibition (%) ([1]; sample 20 mM): 70.2%
Inhibition (%) ([1]; sample 100 mM): 83.9%

Compound: O=[N+]([O-])c1ccc(S[C@@H]2O[C@H](CO)[C@@H](O)[C@H](O)[C@H]2O)cc1 [Glc-S-pNP, p-Nitrophenyl 1-thio-β-D-glucopyranoside]
IC50 [5]: 230 nM

Compound: CCCCC(CCCC)S[C@@H]1O[C@H](CO)[C@@H](O)[C@H](O)[C@H]1O [Glc-S-CH(C4H9)2, 5-(1-Thio-β-D-glucopyranosyl)nonan]
IC50 [5]: 1500 nM

Compound: O=C(CCCCCCCCS[C@@H]1O[C@H](CO)[C@@H](O)[C@H](O)[C@H]1O)NCCNc1ccc([N+](=O)[O-])c2nonc12 [Glc-S-C8-CONH-C2-NBD]
concentration of administered compound: Adrenal [2]: 1.87 pmol/mol or g tissue
concentration of administered compound: Blood [2]: 10.72 pmol/mol or g tissue
concentration of administered compound: Heart [2]: 3.23 pmol/mol or g tissue
concentration of administered compound: Kidney [2]: 280.32 pmol/mol or g tissue
concentration of administered compound: Liver [2]: 13.85 pmol/mol or g tissue
concentration of administered compound: Lung [2]: 6.90 pmol/mol or g tissue
concentration of administered compound: Plasma [2]: 16.42 pmol/mol or g tissue
concentration of administered compound: Spleen [2]: 0.55 pmol/mol or g tissue

Compound: COC(=O)CCCCCCCCS[C@@H]1S[C@H](CO)[C@@H](O)[C@H](O)[C@H]1O [5S-Glc-S-C8-COOMe, 8-methoxycarbonyloctyl 5-deoxy-1,5-dithio-β-D-glucopyranoside]
IC50 [5]: 14000 nM

Compound: CC(C)(C)CC(C)(C)S[C@@H]1O[C@H](CO)[C@@H](O)[C@H](O)[C@H]1O [Glc-S-C(CH3)2-CH2-C(CH3)3, t-Octyl 1-thio-β-D-glucopyranoside]
IC50 [5]: 1000 nM

Compound: O=C[C@H](O)[C@@H](O)[C@@H](O)[C@H](O)CO [Galactose]
Inhibition (%) ([1]; sample 20 mM): 2.5%
Inhibition (%) ([1]; sample 100 mM): 18.9%

Compound: O=C[C@H](O)[C@@H](F)[C@H](O)[C@H](O)CO [3-Fluoro-3-deoxyglucose]
Inhibition (%) ([1]; sample 20 mM): 9.7%
Inhibition (%) ([1]; sample 100 mM): 18.7%

Compound: COC(=O)CCCCCCCCS[C@@H]1N[C@H](CO)[C@@H](O)[C@H](O)[C@H]1O [5N-Glc-S-C8-COOMe, 8-methoxycarbonyloctyl 5-amino-5-deoxy-1-thio-β-D-glucopyranoside hydrochloride]
IC50 [5]: 4700 nM

Compound: OC[C@H]1OC(O)[C@H](O)[C@@H](O)[C@@H]1O (some centres unmarked) [Glc, glucopyranose]
IC50 [3]: > 2000 µM
Inhibition (%) ([1]; sample 20 mM): 16.7%
Inhibition (%) ([1]; sample 100 mM): 38.4%

Compound: COC(=O)CCCCCCCCO[C@@H]1O[C@H](CO)[C@@H](O)[C@H](O)[C@H]1O [Glc-O-C8-COOMe, 8-methoxycarbonyloctylβ-D-glucopyranoside]
IC50 [5]: 33000 nM

Compound: N=C(N)NCCC[C@H](NC(=O)[C@@H]1CCCN1C(=O)[C@@H]1CSSC[C@H](NC(=O)CCCCCCCCCCCS[C@@H]2O[C@H](CO)[C@@H](O)[C@H](O)[C@H]2O)C(=O)N[C@@H](Cc2ccc(O)cc2)C(=O)N[C@@H](Cc2ccccc2)C(=O)N[C@@H](CCC(N)=O)C(=O)N[C@@H](CC(N)=O)C(=O)N1)C(=O)NCC(N)=O [Glc-S-C11-AVP]
Conc. in kidney [4]: 40.2±1.5 % of dose/g
Renal clearance [4]: 4.47 ± 0.33 mL/min/g
renal selectivity [4]: higher renal selectivity than Glc-S-C8-AVP

The remaining lines, values ahead:

IC50 [3]: 0.065 µM
IC50 [5]: 78 nM
Compound: CCCCCCCCS[C@@H]1O[C@H](CO)[C@@H](O)[C@H](O)[C@H]1O [Glc-S-C8, Octyl 1-thio-β-D-glucopyranoside]

IC50 [5]: 1100 nM
Compound: CCCCCCCCS[C@@H]1O[C@H](CO)[C@@H](O)[C@@H](O)[C@H]1O [All-S-C8, Octyl 1-thio-β-D-allopyranoside]

IC50 [5]: 200 nM
Compound: CCCCCCCCS[C@@H]1O[C@H](CO)[C@@H](O)[C@H](O)[C@@H]1O [Man-S-C8, Octyl 1-thio-β-D-mannopyranoside]

IC50 [3]: 2.9 µM
IC50 [5]: 4600 nM
Compound: CCCCCCCCO[C@@H]1O[C@H](CO)[C@@H](O)[C@H](O)[C@H]1O [Glc-O-C8, Octyl β-D-glucopyranoside]

IC50 [5]: 71 nM
Compound: CCCCCCCCS[C@H]1C[C@@H](O)[C@H](O)[C@@H](CO)O1 [Example 2d-Glc-S-C8, Octyl 2-deoxy-1-thio-β-D-glucopyranoside]

IC50 [5]: 590 nM
Compound: COC(=O)CCCCCCCCS[C@@H]1O[C@H](CO)[C@@H](O)[C@H](O)[C@H]1O [Glc-S-C8-COOMe, 8-methoxycarbonyloctyll-thio-β-D-glucopyranoside]

IC50 [5]: 110 nM
Compound: COC(=O)CCCCCCCN[C@@H]1O[C@H](CO)[C@@H](O)[C@H](O)[C@H]1O [Glc-NH-C7-COOMe, N-(7-methoxycarbonyl)heptyl-β-D-glucopyranosylamine]

IC50 [3]: 120 µM
IC50 [5]: 37000 nM
Compound: CCCCCCCCS[C@@H]1O[C@H](CO)[C@H](O)[C@H](O)[C@H]1O [Gal-S-C8, Octyl 1-thio-β-D-galactopyranoside]

IC50 [3]: 5.9 µM
Compound: CCCCCCO[C@@H]1O[C@H](CO)[C@@H](O)[C@H](O)[C@H]1O [Glc-O-C6, Hexyl β-D-glucopyranoside]

IC50 [5]: 55000 nM
Compound: CCCCCCCCS[C@@H]1O[C@H](CO)C[C@H](O)[C@H]1O [Example 4d-Glc-S-C8, n-octyl 4-deoxy-1-thio-β-D-glucopyranoside]

IC50 [5]: 1500 nM
Compound: CCCCCCCCS[C@@H]1OC[C@@H](O)[C@H](O)[C@H]1O [Xyl-S-C8, Octyl 1-thio-β-D-xylopyranoside]
